These results are taken from patent US11667674B2, “Antibacterial cyclic lipopeptides” (priority 2016, dated 2023).

One assay deals with MRSA ATCC33591. Briefly: Neutropenic mouse thigh infection model. To be noted: for Thigh colony-forming units (c.f.u): neutropenic ICR mice, thighs at 24 h, X ± SD, n = 5. More on the design: Δ (thigh c.f.u. versus control): unit not given here. The assay is classed as in vivo, S. aureus. On the procedure: Compound 1 was tested against MRSA ATCC33591 in a neutropenic mouse thigh infection model. Both female and male ICR mice were rendered neutropenic by cyclophosphamide (three consecutive doses of 150 mg per kg delivered before infection). At day 4, bacteria were resuspended in sterile saline, 0.1 ml inoculum (MRSA ATCC33591, 5.0×10^6 c.f.u/ml) was injected into the left thighs of mice. At 2 h post-infection, mice received treatment with Compound 1 at 0.63, 1.25, 2.5, 5.0 mg per kg administered in a single dose (10 ml/kg), intravenous injection (five mice per group). At 24 h post-infection, the left thighs were aseptically removed, weighed, homogenized, serially diluted and plated on trypticase soy agar for c.f.u titres.

The next assay deals with MRSA ATCC43300. Briefly: Right-sided endocarditis rat model. The assay is classed as in vivo, S. aureus. To be noted: for Log10 (CFU/g) of vegetation / Vegetation weight: Sprague-Dawley rats, 1 time/day for 2 days, 3 animals. How it is done: Male Sprague-Dawley rats (280-300 g) were intraperitoneally anesthetized with sodium pentobarbital solution (40 mg/kg). The rat chin area was treated with 75% alcohol. The right carotid artery was exposed through an anterior incision just slight right of midline above the calvicles. Polyethylene tubing was placed over 4-4.5 cm guided wire and passed within the right carotid artery into the left ventricle until resistance was met. Cardiac pulsations of the catheter indicated proper placement of the catheter tip at the apex of the heart. 0.5 ml inoculum of the overnight cultures (ATCC43300m 3.5×10^4 c.f.u./mL) was injected through a tail vein. After 24 hours of infection, the surviving rats were randomly divided into control group and treatment group. Compound 1 and daptomycin was administered via tail vein for 2 days (1 time/day). 24 h after the last administration, the animals were anesthetized and sacrificed. Vegetations and tissue samples were excised, weighed, homogenized, serially diluted and plated on trypticase soy agar for c.f.u titres.

The subject of assay [1] is Clostridium difficile ATCC43255. Briefly: in vitro anti-Clostridium difficile MIC, standard broth dilution method. In kind it is cell-based. How it is done:
(§1) Anti-Clostridium difficile activity of compound 1 was tested on two strains, C. difficile BAA-1382 and […], using the standard broth dilution method as described by the Clinical Laboratory Standard Institute.
Background: In broth dilution the organism is exposed to a series of concentrations in liquid medium.

In assay [2] the test system is Clostridium difficile ATCCBAA-1382. The assay is described as above. The assay is classed as cell-based. To be noted: for MIC: Clostridium difficile ATCCBAA-1382; for anti-Clostridium difficile activity compared with vancomycin and daptomycin: in words, both strains of Table 3. On the procedure:
as §1

The mark [3] stands for this setting: 0.63 mg/kg single i.v. dose 2 h post-infection.
[4] abbreviates: 1.25 mg/kg single i.v. dose 2 h post-infection.
Setting [5] is: 2.50 mg/kg single i.v. dose 2 h post-infection.
The mark [6] stands for this setting: 5.00 mg/kg single i.v. dose 2 h post-infection.
Setting [7] is: Clostridium difficile ATCC43255.

Converted amounts (≈) assume the structure as drawn. Read-outs that look alike come from different tables or passages of the source.

For `CCCCCCCCCC(=O)N[C@@H](Cc1c[nH]c2ccccc12)C(=O)N[C@H](CC(N)=O)C(=O)N[C@@H](CC(=O)O)C(=O)N[C@@H]1C(=O)NCC(=O)N[C@@H](CCCN)C(=O)N[C@@H](CC(=O)O)C(=O)N[C@H](C)C(=O)N[C@@H](CC(=O)O)C(=O)NCC(=O)N[C@H](CO)C(=O)N[C@@H](C(C)CC(=O)O)C(=O)N[C@@H](CC(=O)c2ccccc2NC)C(=O)O[C@@H]1C` (some centres unmarked) [Compound 1], the “Δ (thigh c.f.u. versus control)” value in the assay with MRSA ATCC33591 (0.63 mg/kg) stood at 0.97; in the assay with MRSA ATCC33591 (1.25 mg/kg), 1.77; in the assay on MRSA ATCC33591 (2.50 mg/kg) it was 3.15; in the assay on MRSA ATCC33591 (5.00 mg/kg) it was 5.18. For the same compound, the “antibacterial activity compared with daptomycin” value in the assay on MRSA ATCC33591 (doses of 1.25 and 2.50 mg/kg, mice with thigh infected with S. aureus) is “significantly better antibacterial activity”. Further, the “Thigh colony-forming units (c.f.u)” value with MRSA ATCC33591 (setting [3]) is 7.93 ± 0.85 log(CFU/thigh); with MRSA ATCC33591 (setting [4]), 7.13 ± 0.25 log(CFU/thigh); in the assay with MRSA ATCC33591 (setting [5]), 5.75 ± 0.35 log(CFU/thigh); in the assay on MRSA ATCC33591 (setting [6]), 3.72 ± 0.35 log(CFU/thigh). Further, the “Δ (Log10 CFU/g of vegetation versus control)” value in the assay on MRSA ATCC43300 (20 mg/kg) turned out to be 1.78. In addition, the “Log10 (CFU/g) of vegetation” value in the assay with MRSA ATCC43300 (20 mg/kg via tail vein) is 7.53 ± 1.08 Log10 (CFU/g). The compound also displayed a Vegetation weight in the assay on MRSA ATCC43300 (20 mg/kg via tail vein) of 0.012 ± 0.002 g. Also, the “infection of S. aureus compared with the control groups and daptomycin” value in the assay with MRSA ATCC43300 (right-sided endocarditis rats) was “significantly decrease the infection of S. aureus”. Moreover, the minimum inhibitory concentration (MIC) (in assay [1] (setting [7]); in assay [2]; in the assay with MRSA ATCC 33591) was 0.5 µg/mL (≈ 0.306 µM) in each case. Also, in assay [2], the “anti-Clostridium difficile activity compared with vancomycin and daptomycin” value was “better activities than vancomycin and daptomycin”.
Regarding `CCCCCCCCCC(=O)N[C@@H](Cc1c[nH]c2ccccc12)C(=O)N[C@H](CC(N)=O)C(=O)N[C@@H](CC(=O)O)C(=O)N[C@@H]1C(=O)NCC(=O)N[C@@H](CCCN)C(=O)N[C@@H](CC(=O)O)C(=O)N[C@H](C)C(=O)N[C@@H](CC(=O)O)C(=O)NCC(=O)N[C@H](CO)C(=O)N[C@@H]([C@H](C)CC(=O)O)C(=O)N[C@@H](CC(=O)c2ccccc2N)C(=O)O[C@@H]1C` [daptomycin, reference compound], the “Δ (thigh c.f.u. versus control)” value in the assay on MRSA ATCC33591 (0.63 mg/kg) is given as 0.88; with MRSA ATCC33591 (1.25 mg/kg), 1.09; in the assay on MRSA ATCC33591 (2.50 mg/kg), 1.97; with MRSA ATCC33591 (5.00 mg/kg), 4.97. The “Thigh colony-forming units (c.f.u)” value in the assay with MRSA ATCC33591 (setting [3]) was 8.02 ± 0.48 log(CFU/thigh); with MRSA ATCC33591 (setting [4]), 7.81 ± 0.37 log(CFU/thigh); in the assay on MRSA ATCC33591 (setting [5]) it was 6.93 ± 0.57 log(CFU/thigh); with MRSA ATCC33591 (setting [6]) it was 3.93 ± 0.84 log(CFU/thigh). In addition, the “Δ (Log10 CFU/g of vegetation versus control)” value in the assay with MRSA ATCC43300 (40 mg/kg) came to 0.73. Also, the “Log10 (CFU/g) of vegetation” value in the assay with MRSA ATCC43300 (40 mg/kg via tail vein) is recorded as 8.58 ± 0.55 Log10 (CFU/g). Further, the Vegetation weight in the assay on MRSA ATCC43300 (40 mg/kg via tail vein) worked out at 0.007 ± 0.001 g. Further, the MIC (in assay [1] (setting [7]); in assay [2]; against MRSA ATCC 33591) was 1 µg/mL (≈ 0.617 µM) throughout.
`CCCCCc1ccc(/C(C)=C/C(=O)N[C@@H](Cc2c[nH]c3ccccc23)C(=O)N[C@H](CC(N)=O)C(=O)N[C@@H](CC(=O)O)C(=O)N[C@@H]2C(=O)NCC(=O)N[C@@H](CCCN)C(=O)N[C@@H](CC(=O)O)C(=O)N[C@H](C)C(=O)N[C@@H](CC(=O)O)C(=O)NCC(=O)N[C@H](CO)C(=O)N[C@@H]([C@H](C)CC(=O)O)C(=O)N[C@@H](CC(=O)c3ccccc3N)C(=O)O[C@@H]2C)cc1` [surotomycin, reference compound]: the minimum inhibitory concentration (MIC) in assay [1] (setting [7]) and in assay [2] was 0.5 µg/mL (≈ 0.297 µM) throughout.
Take `CN[C@H](CC(C)C)C(=O)N[C@H]1C(=O)N[C@@H](CC(N)=O)C(=O)N[C@H]2C(=O)N[C@H]3C(=O)N[C@H](C(=O)N[C@H](C(=O)O)c4cc(O)cc(O)c4-c4cc3ccc4O)[C@H](O)c3ccc(c(Cl)c3)Oc3cc2cc(c3O[C@@H]2O[C@H](CO)[C@@H](O)[C@H](O)[C@H]2O[C@H]2C[C@](C)(N)[C@H](O)[C@H](C)O2)Oc2ccc(cc2Cl)[C@H]1O` [vancomycin, reference compound]: the MIC (commonly the lowest concentration found to suppress growth) stood at 1 µg/mL (≈ 0.69 µM) in assay [1] (Clostridioides difficile, ATCC43255) and 1 µg/mL (≈ 0.69 µM) in assay [2] (Clostridioides difficile, ATCCBAA1382, read-out: MIC).
As for `CCCCCc1ccc(/C(C)=C/C(=O)N[C@@H](Cc2c[nH]c3ccccc23)C(=O)N[C@H](CC(N)=O)C(=O)N[C@@H](CC(=O)O)C(=O)N[C@@H]2C(=O)NCC(=O)N[C@@H](CCCN)C(=O)N[C@@H](CC(=O)O)C(=O)N[C@H](C)C(=O)N[C@@H](CC(=O)O)C(=O)NCC(=O)N[C@H](CO)C(=O)N[C@@H](C(C)CC(=O)O)C(=O)N[C@@H](CC(=O)c3ccccc3NC)C(=O)O[C@@H]2C)cc1` (some centres unmarked) [Compound 7], the MIC in assay [1] (setting [7]) was 0.25 µg/mL (≈ 0.148 µM). Moreover, in assay [2], the MIC came to 0.25 µg/mL (≈ 0.148 µM); the “anti-Clostridium difficile activity compared with vancomycin and daptomycin” value was “better activities than vancomycin and daptomycin”.
